Assay results reported in patent US11542254B2, “Methods and composition of 4-substituted benzoylpiperazine-1-substituted carbonyls as beta-catenin/B-cell lymphoma 9 inhibitors” (University of Utah Research Foundation, priority 2016, dated 2023).
Entries after “also recorded” stand apart in the source; their conditions may differ. Structures can show the parent of a compound that is named as a salt. Where two headings read alike, the source gives them in different places.

Key:
HCT116 cells = experiment: MTS cell viability assay, HCT116; assay type: cell-based; conditions: read-out: IC50 ± SD
Method: (§1) 26. MTS Cell Viability Assay
(§2) Colorectal cancer cell lines, SW480 and HCT116 were seeded in 96-well plates at 4×10^3 cells/well, maintained overnight at 37° C., and incubated with the tested compounds at various concentrations. Cell viability was monitored after 72 h using a freshly prepared mixture of 1 part phenazine methosulfate (PMS, Sigma) solution (0.92 mg/mL) and 19 parts 3-(4,5-dimethylthiazol-2-yl)-5-(3-carboxymethoxyphenyl)-2-(4-sulfophenyl)-2H-tetrazolium (MTs, Promega) solution (2 mg/mL). Cells were incubated in 10 μL of this solution at 37° C. for 3 h, and A490 was measured. […] Experiments were performed in triplicate.

SW480 cells = experiment: MTS cell viability assay, SW480; assay type: cell-based; conditions: read-out: IC50 ± SD
Method: as §1, §2

[1] = tested on: pcDNA3.1-β-catenin transfected HEK293 cells, TOPFlash (wild-type Tcf binding sites); experiment: TOPFlash Wnt-responsive luciferase reporter assay; assay type: cell-based; conditions: 24 h treatment, hydrochloride
Method: (§3) 27. Cell Transfection and Luciferase Assay
(§4) FuGENE 6 (E2962, Promega) in a 96-well plate format was used for the transfection of HEK293 and SW480 cells according to the manufacturer's instructions. HEK293 cells were co-transfected with 45 ng of the TOPFlash (with three wild-type Tcf binding sites) or FOPFlash (with three mutant Tcf binding sites) reporter gene, 135 ng pcDNA3.1-β-catenin and 20 ng pCMV-RL normalization reporter gene. SW480 cells were co-transfected with 60 ng of the TOPFlash or FOPFlash reporter gene and 40 ng pCMV-RL normalization reporter. Cells were cultured at 37° C. for 24 h, and different concentrations of inhibitors were then added. After 24 h, the luciferase reporter activity was measured using the Dual-Glo system (E2940, Promega). Normalized luciferase activity in response to the treatment with the inhibitors was compared with that obtained from the cells treated with DMSO. Experiments were performed in triplicate.

β-catenin/BCL9 PPI = β-catenin/BCL9 PPI (Homo sapiens (Human), UniProt P35222); experiment: AlphaScreen competitive inhibition assay, wild-type β-catenin/BCL9 PPI; assay type: binding; conditions: wild-type β-catenin/BCL9 PPI, AlphaScreen competitive inhibition, mean ± SD (n=3)
Chain of β-catenin/BCL9 PPI (P35222 138-686): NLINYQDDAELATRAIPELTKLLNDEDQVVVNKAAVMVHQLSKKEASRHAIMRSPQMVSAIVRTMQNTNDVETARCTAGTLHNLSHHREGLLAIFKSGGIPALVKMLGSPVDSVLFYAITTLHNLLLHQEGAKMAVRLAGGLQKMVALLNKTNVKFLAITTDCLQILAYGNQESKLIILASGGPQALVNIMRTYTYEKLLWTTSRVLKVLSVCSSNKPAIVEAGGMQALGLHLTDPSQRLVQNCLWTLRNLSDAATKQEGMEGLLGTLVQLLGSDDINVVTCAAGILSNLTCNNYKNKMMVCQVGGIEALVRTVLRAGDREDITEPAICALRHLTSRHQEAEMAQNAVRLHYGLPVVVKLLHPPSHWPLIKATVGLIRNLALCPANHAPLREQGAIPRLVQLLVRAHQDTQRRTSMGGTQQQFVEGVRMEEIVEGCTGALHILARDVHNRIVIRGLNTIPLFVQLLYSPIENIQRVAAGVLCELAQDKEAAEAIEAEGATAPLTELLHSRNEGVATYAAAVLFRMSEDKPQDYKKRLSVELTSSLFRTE
Method: Cells were cultured in LB medium with 30 μg/mL kanamycin until the OD600 was approximately 0.8, and then protein expression was induced with 400 μM of IPTG at 20° C. overnight. Cells were lysed by sonication. […] Native non-denaturing gel electrophoresis was performed to confirm the homogeneity of the purified proteins. Thermal-shift assay was performed on an iCycler iQ Real Time Detection System (Bio-Rad) to monitor protein stability and detect protein aggregation. Protein unfolding was evaluated through measuring the fluorescence changes of fluorescent dye Sypro Orange when interacting with wild-type or mutant β-catenin proteins. A temperature increment of 1°/min was applied. […] All spectra were recorded at room temperature, and the baseline control containing all of the substances except protein. Sample were prepared at a concentration around 1-5 μM in a buffer of 10 mM potassium phosphate and 100 mM potassium fluoride at pH 7.0 to ensure that the transmission of light through the sample was not restricted. […] Proteins were aliquoted and stored at −80° C.
25. Alphascreen Competitive Inhibition Assays Using Wild-Type and Mutant β-Catenin Proteins

[2] = tested on: pcDNA3.1-β-catenin transfected HEK293 cells, FOPFlash (mutant Tcf binding sites); experiment: FOPFlash luciferase reporter assay; assay type: cell-based; conditions: up to 100 μM
Method: as §3, §4

[3] = biological target: β-catenin D145A/E155A double mutant/BCL9 interaction (Homo sapiens (Human), UniProt P35222, D145A/E155A); experiment: AlphaScreen competitive inhibition assay, β-catenin D145A/E155A double mutant/BCL9 interaction; assay type: binding; conditions: read-out: Ki ± SD
Chain of β-catenin D145A/E155A double mutant/BCL9 interaction (P35222 138-686 D145A/E155A): as the sequence (P35222 138-686) above, with D8A, E18A counted along it
Method: (§5) β-Catenin mutants D145A, E155A, D145A/E155A have been made previously.^5 Wild-type β-catenin and its mutants (residues 138-686) were cloned into a pET-28b vector carrying a C-terminal 6×histidine (Novagen), and transformed into Escherichia coli BL21 DE3 (Novagen). Cells were cultured in LB medium with 30 μg/mL kanamycin until the OD600 was approximately 0.8, and then protein expression was induced with 400 μM of IPTG at 20° C. overnight. Cells were lysed by sonication. […] The purity of β-catenin was greater than 95% as determined by SDS-PAGE gel analysis. Native non-denaturing gel electrophoresis was performed to confirm the homogeneity of the purified proteins. Thermal-shift assay was performed on an iCycler iQ Real Time Detection System (Bio-Rad) to monitor protein stability and detect protein aggregation. Protein unfolding was evaluated through measuring the fluorescence changes of fluorescent dye Sypro Orange when interacting with wild-type or mutant β-catenin proteins. A temperature increment of 1°/min was applied. CD spectra were measured on a J-815 spectropolarimeter (Jasco). All spectra were recorded at room temperature, and the baseline control containing all of the substances except protein. […]

β-catenin E155A/BCL9 PPI = β-catenin E155A/BCL9 PPI (Homo sapiens (Human), UniProt P35222, E155A); experiment: AlphaScreen competitive inhibition assay, β-catenin E155A mutant/BCL9 PPI; assay type: binding
Chain of β-catenin E155A/BCL9 PPI (P35222 138-686 E155A): as the sequence (P35222 138-686) above, with E18A counted along it
Method: as §5

β-catenin/cadherin PPI = β-catenin/cadherin PPI (Homo sapiens (Human), UniProt P35222); experiment: AlphaScreen selectivity assay, β-catenin/BCL9 over β-catenin/cadherin PPIs; assay type: binding; conditions: in-parallel AlphaScreen selectivity assay
Chain of β-catenin/cadherin PPI (P35222 138-686): as the sequence (P35222 138-686) above
Excerpt: Human BCL9 (residues 350-375), N-terminally biotinylated human BCL9 (residues 350-375), N-terminally fluorescein-labeled human BCL9 (residues 350-375), and N-terminally biotinylated human E-cadherin (residues 824-877) were synthesized by InnoPep Inc. (www.innopep.com) and HPLC purified by HPLC with purity>95%. The structures were validated by LC/MS. The sequences of these peptides have been described previously.^6
The experimental details of the AlphaScreen competitive inhibition assays for the β-catenin/BCL9 and β-catenin/E-cadherin PPIs have been described previously.^5 The concentrations of mutant β-catenin proteins used in the AlphaScreen competitive inhibition assays were the same as that of wild-type β-catenin protein.
The AlphaScreen selectivity assay was used to quantify inhibitor selectivity.

β-catenin D145A/BCL9 PPI = β-catenin D145A/BCL9 PPI (Homo sapiens (Human), UniProt P35222, D145A); experiment: AlphaScreen competitive inhibition assay, β-catenin D145A mutant/BCL9 PPI; assay type: binding
Chain of β-catenin D145A/BCL9 PPI (P35222 138-686 D145A): as the sequence (P35222 138-686) above, with D8A counted along it
Method: as §5

| IC50 (HCT116 cells; Homo sapiens, HCT-116, HCT116 colorectal cancer cells, MTS, 72 h) [µM] | IC50 (SW480 cells; Homo sapiens, SW480 colorectal cancer cells, MTS, 72 h) [µM] | Compound | IC50 (HCT116 cells; HCT116 colorectal cancer cells, MTS, 72 h) [µM] | IC50 (SW480 cells; SW480 colorectal cancer cells, MTS, 72 h) [µM] | TOPFlash luciferase activity [1] | Ki (β-catenin/BCL9 PPI) [µM] | IC50 (HCT116 cells; Homo sapiens, HCT-116, 72 h) [µM] | IC50 (SW480 cells; Homo sapiens, SW480, 72 h) [µM] | FOPFlash luciferase activity [2] | Ki [3] [µM] | Ki fold higher than for wild-type β-catenin/BCL9 PPI (β-catenin E155A/BCL9 PPI; β-catenin E155A/BCL9 PPI vs wild type) | Ki (β-catenin E155A/BCL9 PPI; β-catenin E155A/BCL9 PPI, AlphaScreen competitive inhibition, read-out: Ki ± SD) [µM] | selectivity for β-catenin/BCL9 over β-catenin/cadherin PPIs (β-catenin/cadherin PPI) [fold] | Ki fold higher than for wild-type β-catenin/BCL9 PPI (β-catenin D145A/BCL9 PPI; β-catenin D145A/BCL9 PPI vs wild type) | Ki (β-catenin D145A/BCL9 PPI; β-catenin D145A/BCL9 PPI, AlphaScreen competitive inhibition, read-out: Ki ± SD) [µM] |
| --- | --- | --- | --- | --- | --- | --- | --- | --- | --- | --- | --- | --- | --- | --- | --- |
|  |  | CC1CCC(c2cc(C(=O)N3CCN(C(=O)c4cc(F)cc(N5CCNCC5)c4)CC3)ccc2O[C@H]2CCNC2)CC1.Cl (stereo partly drawn) [Compound 12, (S)-(4-(3-fluoro-5-(piperazin-1-yl)benzoyl)piperazin-1-yl) (3-(4-methylcyclohexyl)-4-(pyrrolidin-3-yloxy)phenyl) methanone hydrochloride] | 39 ± 5.4 | 44 ± 6.5 | suppressed the TOPFlash (with wild-type Tcf binding sites) luciferase activity in a dose-dependent manner; also recorded: suppress the transactivation of canonical Wnt signaling |  |  |  |  |  |  |  |  |  |  |
| 120 ± 16 | 86 ± 8.8 | O=C(c1cc(F)cc(N2CCNCC2)c1)N1CCN(C(=O)c2ccc(O[C@H]3CCNC3)c(-c3ccc(F)cc3)c2)CC1 [Compound 2, (S)-(4-(3-fluoro-5-(piperazin-1-yl)benzoyl)piperazin-1-yl) (4′-fluoro-6-(pyrrolidin-3-yloxy)-[1,1′-biphenyl]-3-yl) methanone hydrochloride] |  |  |  | 19 |  |  |  |  |  |  |  |  |  |
|  |  | Cl.Cl.O=C(c1cc(F)cc(N2CCNCC2)c1)N1CCN(C(=O)c2ccc(O[C@H]3CCNC3)c(C3CCCCC3)c2)CC1 [Compound 10, (S)-(4-(3-Cyclohexyl-4-(pyrrolidin-3-yloxy)benzoyl)piperazin-1-yl) (3-fluoro-5-(piperazin-1-yl)phenyl) methanone hydrochloride] |  |  | suppressed the TOPFlash (with wild-type Tcf binding sites) luciferase activity in a dose-dependent manner; also recorded: suppress the transactivation of canonical Wnt signaling | 5.2 | 26 ± 6.6 | 22 ± 4 | did not affect | 53 ± 4.2 | 6-8 fold | 39 ± 3.3 | 98 | 6-8 fold | 29 ± 3 |
